Assay results: patent publication US20140010939A1, “Sweetness Enhancers, Sweetener Compositions, Methods of Making the Same and Consumables Containing the Same” (Nutrinova Nutrition Specialties & Food Ingredients GmbH, priority 2011, published 2014)

Tested on: control cell line without sweet receptor (HEKα15#17)
Test: Control cell line without sweet receptor in the same calcium cell based assay
Method: For measurement of human T1R2/T1R3 taste receptor dependent activity a control cell line without sweet receptor based on HEK 293 and a cell line expressing the sweet receptor hT1R2/hT1R3 based on HEK 293, respectively, are seeded into assay plates and labelled with the calcium sensitive fluorescence dye Fluo4-AM in a culture medium. The potential modulators, e.g. the test compound, are added to the control cell line and to the cell line expressing the sweet receptor hT1R2/hT1R3, respectively.
A stable cell line based on HEK293 was termed HEKα15#17 served as control for functional Ga-protein and a stable cell line HEKGα15#17R2R3b#8 C6 served as cell line expressing the sweet receptor hT1R2/hT1R3 based on HEKGα15#17.
The cells were cultured in DMEM/HG and 10% FCS Gold, 4 mM L-Glutamin, 1,3 mg/ml Geneticin (HEKGα15#17) or the same medium additionally containing 6 μg/ml Blasticidin (HEKGα15#17R2R3b#8 C6). The medium for the assay was DMEM/HG (high glucose, 4.5 g/l glucose, Life Technologies) and 10% FCS Gold, 4 mM L-Glutamin (HEKGα15#17) or DMEM/LG (low glucose, 1 g/l glucose; Life Technologies) and 10% FCS Gold (HEKGα15#17R2R3b#8C6), respectively.
In order to evaluate the sweet receptor modulating activity of the compound of formula (Ia), compound of formula (Ia) was added to the cultures in a concentration of 25 μM in a volume of 50 μl. Controls were KH-buffer (Krebs HEPES-buffer: 118 mM NaCl, 4.7 mM KCl, 1.2 mM MgSO4, 1.2 mM KH2PO4, 4.2 mM NaHCO3, 1.3 mM CaCl2, 10 mM Hepes, pH 7.4) either without or with sweetness enhancer.
Further controls for function of G-protein and receptor were isoproterenol (1 μM, Sigma Aldrich), ionomycin (1 μM, Calbiochem) and ATP (1 μM, Applichem).
For measurement of human T1R2/T1R3 taste receptor dependent activity, on day 1 of the test procedure the HEKα15#17 cells (control cell line without sweet receptor) and the HEKGα15#17R2R3b#8 C6 cells (cell line expressing the sweet receptor hT1R2/hT1R3), respectively, were transferred to low-glucose medium.
On day 2 the cells were seeded into assay plates at a density of 25,000 cells/well. Assay plates for fluorescence measurement (black clear bottom 96-cavity plates, Greiner Bio-One) were coated with poly-D-lysine. For direct comparison both cell lines (control cell line without sweet receptor and cell line expressing the sweet receptor hT1R2/hT1R3) were seeded into different cavities of the same assay plate. The plate was placed into the incubator for 48 hours at 37° C., 5% CO2, 100% relative humidity.
On day 4 the calcium assay was performed. For this assay, the cells were marked with Fluo4-AM in medium and KH-buffer. To each cavity 100 μl KH-buffer/250 μM sulfinpyrazone/4 μM Fluo4-AM were added gently to 100 μl medium (final concentration of Fluo4-AM=2 μM, stock solution of Fluo4-AM 1 mM in DMSO, excitation at 485 nm, emission at 520 nm, Fisher Scientific, 58239 Schwerte, Germany).
The plate was placed into the incubator for 1 hour. In the mean time the test substances (“ligands”) were prepared in a separate plate (5 times concentrated, 150 μl/cavity, and then automatically 50 μl/cavity were transferred into the screening cell plate by pipetting robot (FLEX-station, Molecular Devices, Sunnyvale, Calif.).
The culture medium was carefully removed and 200 μl KH-buffer/250 μM sulfinpyrazone per cavity was added slowly. Cells were left in the FLEX-station for 20 minutes for adaptation, followed by measurement at 37° C.

SMILES: CC(=O)N(O)CCCCCNC(=O)C(O)(CC(=O)O)CC(=O)NCCCN(O)C(C)=O (stereo not drawn) [compound of formula (Ia)]
- Fluo4-AM fluorescence increase (activation of control cell line) (25 μM, in the presence of fructose (20 mM), FIG. 1 ninth bar): does not activate the control cell line
- Fluo4-AM fluorescence increase (activation of control cell line) (25 μM, without fructose, FIG. 1 eighth bar): does neither activate the control cell line
- Fluo4-AM fluorescence increase (activation of control cell line) (secondary screening, in the presence of fructose, FIG. 1 seventh bar): does not activate the control cell line
